The source of these data is article PMC6721120, “Inhibitory Effects of Ginsenoside Ro on the Growth of B16F10 Melanoma via Its Metabolites” (Molecules, 2019).

The test system of one series is B16F10 melanoma tumour. Briefly: Tumour xenograft experiment in B16F10 tumour-bearing mice. The following applies: 25 mg/kg intraperitoneal, 15 days. Format: in vivo, C57BL/6J mice. As for the experimental part:
(§1) An anti-tumour assay was conducted in a mouse xenograft model. B16F10 cells were cultured in DMEM containing 10% FBS. After the collection of cells, the cells were re-suspended in normal saline to the appropriate concentrations. Next, 0.1 mL of the B16F10 cell suspension (1 × 10^6 cells) was subcutaneously injected via the right axillary region of the C57BL/6J mice. The tumour-bearing mice were randomly divided into three groups (n = 6/group): model control group, positive control group, and Ro (25 mg/kg) administration group. […] Normal and model mice were administered normal saline. The mice in the positive control group received CTX (20 mg/kg). The successive intraperitoneal injection of drugs into the mice from the day after tumour inoculation and the body weights were monitored every 2 days. After 15 days, all mice were sacrificed, and tumours were taken out and measured as previously described. The thymus and spleen were also removed and weighed to calculate the thymus and spleen indices. The tumour inhibition rate was calculated. The blood samples were collected from the retrobulbar vessels and added into tubes containing heparin. Subsequently, plasma samples were prepared by centrifugation for 10 min at 3800 rpm and stored at −80 °C for HPLC-MS analysis.
A xenograft experiment was performed using the same method as described in Section 2.2. Briefly, after the mice were inoculated with tumour cells, they were randomly divided into […] (n = 6/group): model control group, positive control group (CTX, 20 mg/kg), R1 (25 mg/kg), IVa (25 mg/kg), and E (5 mg/kg) administration groups. […] Normal and model mice were administered normal saline. Drugs were intraperitoneally injected into the mice for 15 consecutive days. Tumour volumes were measured every 2 days, and tumour growth curves were plotted. At the end of the experiment, the mice were sacrificed, and the tumour weight and tumour growth inhibition rates were calculated.

The conditions of series [1]: mouse, in vivo. As for the experimental part: as §1
A further series deals with B16F10 melanoma cells. Description: MTT cell viability assay. Format: cell-based. The following applies: 0, 1, 3, 10, 30, 100 μg/mL, 24 h. How it is done: In this study, Ro was dissolved in dimethyl sulfoxide (DMSO) and diluted in DMEM and then filtered using a 0.22 μm membrane. The final concentration of DMSO in cell culture medium was 0.1%, and 0.1% DMSO-treated cells were used as controls. The effect of Ro on B16F10 cell growth in vitro was performed using the MTT assay. Briefly, exponentially growing B16F10 (1 × 10^4 cells/well) cells were seeded onto 96-well plates and incubated for 24 h in complete medium. After 24 h incubation, the cells were treated with various concentrations of Ro (0, 1, 3, 10, 30, 100 μg/mL) for 24 h, and MTT (0.5%, 20 μL) was then added to each well and incubated for an additional 4 h at 37 °C. The formazan crystals were dissolved in DMSO (150 μL), and the absorbance at 490 nm was measured using a microplate reader (BioTek Epoch; BioTek, Winooski, VT, USA)
The metabolites (standard substance) of Ro were dissolved in the same manner as Ro. Briefly, IVa, R1, and E were dissolved in dimethyl sulfoxide (DMSO), diluted in DMEM, and then filtered using a 0.22 μm membrane. The final concentration of DMSO in cell culture medium was 0.1%, and 0.1% DMSO-treated cells were used as controls. The effects of IVa, R1, and E on B16F10 cell growth were evaluated using the MTT assay as previously described. The cells were treated with various concentrations of IVa (0, 1, 3, 10, 30, 100 μg/mL), R1 (0, 5, 10, 20, 30, 40 μg/mL), and E (0, 2, 4, 6 μg/mL) for 24 h. After incubation, MTT (0.5%, 20 μL) was added and incubated for 4 h at 37 °C. Then the supernatants were carefully removed, and 150 μL DMSO was added to each well. After 10 min of incubation and vibration, the absorbance was read at a wavelength of 490 nm. IC50 values were calculated using Probit Analysis with SPSS 22.0 (SPSS Inc., Chicago, IL, USA).

The subject of series [2] is human umbilical vein endothelial cells (HUVECs). Description: Tube formation assay on Matrigel. The class given is cell-based. The following applies: 5 h. How it is done:
The tube formation assay was performed as previously described with some modifications. Matrigel (BD Biosciences, San Jose, CA, USA) was thawed overnight at 4 °C. Next, 50 μL Matrigel was coated on each well of the pre-chilled 96-well plates and then incubated at 37 °C for 1 h. HUVECs (5 × 10^4 cells/well) were seeded on the Matrigel and treated with various concentrations of Ro (0, 1, 3, 10, 30, 100 μg/mL), R1 (0, 5, 10, 20, 30, 40 μg/mL), IVa (0, 1, 3, 10, 30, 100 μg/mL), and E (0, 2, 4, 6, 8, 10 μg/mL). After incubation for 5 h, the formation of HUVEC tubular structures was captured using a microscope (Nikon eclipse Ti; Nikon, Tokyo, Japan). The tube length was quantified using Image-Pro Plus 6.0 software.

The next series in a line: Haemolysis test. The class given is cell-based, Sprague Dawley rats. The following applies: Sprague-Dawley, rat, isolated erythrocytes (2% haematocrit suspension), 37 °C, 60 min, read-out: Haemolysis Rate (%). As for the experimental part: (§2) To evaluate the haemocompatibility of Ro, the haemolysis test was performed as previously described. Arterial blood was obtained from healthy Sprague Dawley rats. Then erythrocytes were separated from the plasma and lymphocytes by centrifugation (3000 rpm, 5 min) at 4 °C, washed three times with normal saline, and suspended in normal physiological saline at a haematocrit of 2%. Erythrocytes were used immediately after isolation. Next, 2.5 mL erythrocyte suspension and 2.5 mL medicated saline solution were added to a 10 mL centrifuge tube. The final concentrations of Ro were 1, 3, 10, 30, and 100 μg/mL. The negative and positive controls were normal physiological saline and 0.2% Triton X-100, respectively. The samples were incubated for a specific time period at 37 °C for 60 min. Next, the tube was centrifuged at 3000 rpm for 5 min. Finally, the optical density (OD) was obtained at a wavelength of 545 nm. Three parallel samples were laid in each group. The mean value of the three samples was obtained as the group OD value. The HR was expressed as the percentage and calculated according to the equation:HR = (ODt − ODn)/(ODp − ODn) × 100%,(1) where ODt indicates the OD value of the tested group, and ODn and ODp are the OD values of the negative and positive control groups, respectively. A haemolysis rate less than 5% is regarded as a nontoxic effect level.

For another series, the system named is erythrocytes. Briefly: Haemolysis test. Format: cell-based, Sprague Dawley rats. The conditions noted are these: all concentrations up to 100 μg/mL. How it is done:
as §2

In the series on B16F10 melanoma tumour, `CC1(C)CC[C@]2(C(=O)O[C@@H]3O[C@H](CO)[C@@H](O)[C@H](O)[C@H]3O)CC[C@]3(C)C(=CC[C@@H]4[C@@]5(C)CC[C@H](O[C@@H]6O[C@H](C(=O)O)[C@@H](O)[C@H](O)[C@H]6O[C@@H]6O[C@H](CO)[C@@H](O)[C@H](O)[C@H]6O)C(C)(C)[C@@H]5CC[C@]43C)[C@@H]2C1` [Ro, ginsenoside Ro] displayed a tumour inhibition rate of 75.7%. Moreover, in series [1], the “Organ Indices Spleen” value is listed as 3.54 ± 1.03 ×100, mg/g; the “Organ Indices Thymus” value is 1.67 ± 0.25 ×100, mg/g; the “Weight (g) After” value came to 24.73 ± 1.43 g; the “Weight (g) Before” value is given as 22.91 ± 1.12 g. Also, in the series with B16F10 melanoma cells, the “effect on B16F10 cell growth in vitro” value is “little effect”. The HUVEC tube formation entry in series [2] (100 μg/mL) was “stimulated tube formation”. The HUVEC tube formation entry in series [2] (1–30 μg/mL) is reported as “no effects”. For the same molecule, the hemolysis at 60 min, 1 μg/mL in “Haemolysis test” (1 μg/mL) was found to be 0.15 ± 0.13%. In addition, the hemolysis at 60 min, 3 μg/mL in the series “Haemolysis test” (3 μg/mL) is 0.31 ± 0.13%. The hemolysis at 60 min, 10 μg/mL in the series “Haemolysis test” (10 μg/mL) was 0.23 ± 0.23%. For the same molecule, the hemolysis at 60 min, 30 μg/mL in the series “Haemolysis test” (30 μg/mL) stood at 0.15 ± 0.13%. The hemolysis at 60 min, 100 μg/mL in the series “Haemolysis test” (100 μg/mL) was determined as 0.31 ± 0.35%. Also, the “haemolysis ratio (HR%)” value with erythrocytes was “less than 5%”.
